In patent publication US20060276464A1, “Diarylsulfone sulfonamides and use thereof” (Wyeth, priority 2005, published 2006):
Counter-ions that a name gives are not always drawn. Like-named read-outs stand apart in the source and are kept apart here.

Experiments:
[1] = target: T1, SFRP-1 (Homo sapiens, UniProt Q8N474); experiment: Fluorescence polarization binding assay (competitive displacement of a probe compound from SFRP-1); conditions: fluorescence anisotropy, 45 nM SFRP-1, 20 nM probe;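 further: test compound competes with a fluorescent probe held by SFRP-1, seen as a drop in probe anisotropy after incubation in darkness, with anisotropy as function of rising compound dose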
T1 sequence (Q8N474 32-314): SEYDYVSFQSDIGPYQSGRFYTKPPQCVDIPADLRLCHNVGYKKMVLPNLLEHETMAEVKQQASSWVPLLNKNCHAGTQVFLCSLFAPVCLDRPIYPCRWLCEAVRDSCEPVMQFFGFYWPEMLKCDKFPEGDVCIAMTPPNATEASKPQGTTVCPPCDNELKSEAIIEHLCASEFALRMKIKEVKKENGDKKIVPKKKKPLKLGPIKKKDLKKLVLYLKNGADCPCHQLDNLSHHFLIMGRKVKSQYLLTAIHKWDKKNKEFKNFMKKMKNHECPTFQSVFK

[2] = target: T1, SFRP-1; experiment: Cell-based assay for in vitro measurement of SFRP-1/SARP2 antagonist activity (U2OS cells co-transfected with 16x TCF-tk-Luciferase reporter, Wnt and hSFRP-1); conditions: for fold induction at 10 µM / fold induction at 15 µM: U2OS; for fold induction at 10 µM: read-out: Fold Induction with SFRP-1, U2OS cells, single dose 10 μM, luciferase reporter, fold induction over SFRP-1 control;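 on all read-outs here: U2OS cells co-transfected with a TCF-tk luciferase reporter, a Wnt vector, hSFRP-1 or empty vector and CMV-βgal, luciferase luminescence read in cell lysates alongside βgal activity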
[3] = read-out: Fold Induction with SFRP-1, Conc 15 μM, with SFRP-1, fold induction over SFRP-1 control, single dose
[4] = read-out: Fold Induction without SFRP-1, Conc 15 μM, without SFRP-1, single dose
[5] = read-out: Fold Induction with SFRP-1, Conc 15 μM, single dose, luciferase reporter, fold induction over SFRP-1 control, cells with SFRP-1
[6] = read-out: Fold Induction without SFRP-1, Conc 15 μM, single dose, luciferase reporter, cells without SFRP-1 (specificity control)

Row | SMILES | IC50 [1] [nM] | EC50 [2] [nM] | fold induction at 10 µM [2] | fold induction at 15 µM [2, 3] | fold induction at 15 µM [2, 4] | fold induction at 15 µM [2, 5] | fold induction at 15 µM [2, 6]
1 | CC(C)c1ccc(S(=O)(=O)c2cccc(Cl)c2)cc1S(=O)(=O)NCCc1ccccn1 [Example 455, 5-[(3-chlorophenyl)sulfonyl]-2-isopropyl-N-(2-pyridin-2-ylethyl)benzenesulfonamide] | 500 |  |  | 3.2 | 1 |  | 
2 | COc1ccc(S(=O)(=O)c2ccc(C)c(S(=O)(=O)NCCc3ccccn3)c2)c(OC)c1 [Example 423, 5-[(2,4-dimethoxyphenyl)sulfonyl]-2-methyl-N-(2-pyridin-2-ylethyl)benzenesulfonamide] | 10000 |  |  | 2.4 | 1.1 |  | 
3 | CC(C)c1ccc(S(=O)(=O)c2cccc(C(F)(F)F)c2)cc1S(=O)(=O)NCCc1ccccn1 [Example 508, 2-isopropyl-N-(2-pyridin-2-ylethyl)-5-{[3-(trifluoromethyl)phenyl]sulfonyl}benzenesulfonamide] | 1300 |  |  |  |  | 2.3 | 0.9
4 | COc1ccc(OC)c(S(=O)(=O)c2ccc(C)c(S(=O)(=O)NCCc3ccccn3)c2)c1 [Example 421, 5-[(2,5-dimethoxyphenyl)sulfonyl]-2-methyl-N-(2-pyridin-2-ylethyl)benzenesulfonamide] | 9000 |  |  | 2.2 | 1.2 |  | 
5 | CCCc1ccc(S(=O)(=O)c2ccc(F)cc2)cc1S(=O)(=O)NCCCn1ccnc1 [Example 565, 5-[(4-Fluorophenyl)sulfonyl]-N-[3-(1H-imidazol-1-yl)propyl]-2-propylbenzenesulfonamide] | 500 |  |  |  |  | 4 | 1.2
6 | Cc1ccc(S(=O)(=O)c2ccccc2)cc1S(=O)(=O)NC1CCN(C(=O)c2cccnc2)CC1 [Example 516, 2-methyl-5-(phenylsulfonyl)-N-[1-(pyridin-3-ylcarbonyl)piperidin-4-yl]benzenesulfonamide] | 2600 |  |  |  |  | 3 | 1
7 | CCc1ccc(S(=O)(=O)c2ccc(F)cc2)cc1S(=O)(=O)NCCCn1ccnc1 [Example 303, 2-ethyl-5-[(4-fluorophenyl)sulfonyl]-N-[3-(1H-imidazol-1-yl)propyl]benzenesulfonamide] | 700 |  |  | 2.7 | 0.8 |  | 
8 | CC(C)c1ccc(S(=O)(=O)c2ccc(F)cc2)cc1S(=O)(=O)NC1CCN(C(=O)N2CCOCC2)CC1 [Example 572, 5-[(4-fluorophenyl)sulfonyl]-2-isopropyl-N-[1-(morpholin-4-ylcarbonyl)piperidin-4-yl]benzenesulfonamide] | 500 |  |  |  |  | 1.7 | 1
9 | Cc1ccc(S(=O)(=O)c2ccc3[nH]ccc3c2)cc1S(=O)(=O)NCCc1ccccn1 [Example 427, 5-(1H-indol-5-ylsulfonyl)-2-methyl-N-(2-pyridin-2-ylethyl)benzenesulfonamide] | 1100 |  |  | 2 | 0.9 |  | 
10 | Cc1ccc(S(=O)(=O)c2ccccc2)cc1S(=O)(=O)NC1CCN(C(=O)NC(C)(C)C)CC1 [Example 490, N-(tert-butyl)-4-({[2-methyl-5-(phenylsulfonyl)phenyl]sulfonyl}amino)piperidine-1-carboxamide] | 2300 |  |  |  |  | 1.7 | 1
11 | CC(C)c1ccc(S(=O)(=O)c2ccc(F)cc2)cc1S(=O)(=O)NCCC1CCOCC1 [Example 322, 5-[(4-fluorophenyl)sulfonyl]-2-isopropyl-N-(2-tetrahydro-2H-pyran-4-ylethyl)benzenesulfonamide] | 600 |  |  | 2.5 | 1.1 |  | 
12 | CC(C)c1ccc(S(=O)(=O)c2ccc(C(C)(C)C)cc2)cc1S(=O)(=O)NCCCn1ccnc1 [Example 436, 5-[(4-tert-butylphenyl)sulfonyl]-N-[3-(1H-imidazol-1-yl)propyl]-2-isopropylbenzenesulfonamide] | 1000 |  |  | 2.2 | 1 |  | 
13 | CC(C)(C)OC(=O)N1CCC(NS(=O)(=O)c2cc(S(=O)(=O)c3ccc(C(=O)O)cc3)ccc2C(F)(F)F)CC1 [Example 1066, 4-{[3-({[1-(tert-butoxycarbonyl)piperidin-4-yl]amino}sulfonyl)-4-(trifluoromethyl)phenyl]sulfonyl}benzoic acid] | 240 | 615 |  |  |  |  | 

Next, values leading:

Row | IC50 [1] [nM] | EC50 [2] [nM] | fold induction at 10 µM [2] | fold induction at 15 µM [2, 3] | fold induction at 15 µM [2, 4] | fold induction at 15 µM [2, 5] | fold induction at 15 µM [2, 6] | SMILES
14 | 60 | 393 |  |  |  |  |  | O=C(c1cscn1)N1CCC(NS(=O)(=O)c2cc(S(=O)(=O)c3ccccc3)ccc2C(F)(F)F)CC1 [Example 1090, 5-(phenylsulfonyl)-N-[1-(1,3-thiazol-4-ylcarbonyl)piperidin-4-yl]-2-(trifluoromethyl)benzenesulfonamide]
15 | 600 | 264 |  |  |  |  |  | O=C(c1ccc(=O)n(S(=O)(=O)c2cc(S(=O)(=O)c3ccccc3)ccc2C(F)(F)F)c1)N1CCC(NS(=O)(=O)c2cc(S(=O)(=O)c3ccccc3)ccc2C(F)(F)F)CC1 [Example 1020, N-{1-[(6-oxo-1-{[5-(phenylsulfonyl)-2-(trifluoromethyl)phenyl]sulfonyl}-1,6-dihydropyridin-3-yl)carbonyl]piperidin-4-yl}-5-(phenylsulfonyl)-2-(trifluoromethyl)benzenesulfonamide]
16 | 300 | 626 | 5.1 |  |  |  |  | N#CCCNS(=O)(=O)c1cc(S(=O)(=O)c2ccc(O)cc2)ccc1C(F)(F)F [Example 821, N-(2-cyanoethyl)-5-[(4-hydroxyphenyl)sulfonyl]-2-(trifluoromethyl)benzenesulfonamide]
17 | 210 | 1990 | 2.8 |  |  |  |  | CN(CCNS(=O)(=O)c1cc(S(=O)(=O)c2ccccc2)ccc1C(F)(F)F)C(=O)N(C)c1ccccc1 [Example 836, N-[2-(methyl{[methyl(phenyl)amino]carbonyl}amino)ethyl]-5-(phenylsulfonyl)-2-(trifluoromethyl)benzenesulfonamide]
18 | 8000 |  | 2.2 |  |  |  |  | CNCCNS(=O)(=O)c1cc(S(=O)(=O)c2ccccc2)ccc1C(F)(F)F [Example 799, N-[2-(Methylamino)ethyl]-5-(phenylsulfonyl)-2-(trifluoromethyl)benzenesulfonamide hydrochloride]
19 | 4000 |  | 3.1 |  |  |  |  | CC(C)c1ccc(S(=O)(=O)c2ccccc2)cc1S(=O)(=O)NCC(O)c1ccccn1 (stereo not shown) [Example 728, N-(2-hydroxy-2-pyridin-2-ylethyl)-2-isopropyl-5-(phenylsulfonyl)benzene-sulfonamide]
20 | 250 | 2190 | 3.4 |  |  |  |  | CN(CCNS(=O)(=O)c1cc(S(=O)(=O)c2ccccc2)ccc1C(F)(F)F)C(=O)Nc1ccc(F)cc1F [Example 832, N-{2-[{[(2,4-difluorophenyl)amino]carbonyl}(methyl)amino]ethyl}-5-(phenylsulfonyl)-2-(trifluoromethyl)benzenesulfonamide]
21 | 8000 |  |  |  |  | 2.7 | 1.1 | CC(=O)N1CCC(NS(=O)(=O)c2cc(S(=O)(=O)c3ccc(F)cc3)ccc2C)CC1 [Example 585, N-(1-acetylpiperidin-4-yl)-5-[(4-fluorophenyl)sulfonyl]-2-methylbenzenesulfonamide]
22 | 300 | 1800 | 3.2 |  |  |  |  | CCC(CC)C(=O)N(C)CCNS(=O)(=O)c1cc(S(=O)(=O)c2ccccc2)ccc1C(F)(F)F [Example 864, 2-ethyl-N-methyl-N-[2-({[5-(phenylsulfonyl)-2-(trifluoromethyl)phenyl]sulfonyl}amino)ethyl]butanamide]
23 | 400 |  |  |  |  | 2.9 | 0.9 | N#CN1CCC(NS(=O)(=O)c2cc(S(=O)(=O)c3ccccc3)ccc2Cl)CC1 [Example 651, 2-chloro-N-(1-cyanopiperidin-4-yl)-5-(phenylsulfonyl)benzenesulfonamide]
24 | 2000 |  | 2.7 |  |  |  |  | O=S(=O)(N[C@H](CO)Cc1c[nH]c2ccccc12)c1cc(S(=O)(=O)c2ccccc2)ccc1C(F)(F)F [Example 721, N-[(1S)-2-hydroxy-1-(1H-indol-3-ylmethyl)ethyl]-5-(phenylsulfonyl)-2-(trifluoromethyl)benzenesulfonamide]
25 | 700 |  | 1.8 |  |  |  |  | O=C(O)CCCNS(=O)(=O)c1cc(S(=O)(=O)c2ccccc2)ccc1C(F)(F)F [Example 893, 4-({[5-(phenylsulfonyl)-2-(trifluoromethyl)phenyl]sulfonyl}amino)butanoic acid]
26 | 2400 | 3720 | 4.9 |  |  |  |  | O=S(=O)(NCCc1cccnc1)c1cc(S(=O)(=O)c2ccccc2)ccc1OC(F)(F)F [Example 660, 5-(phenylsulfonyl)-N-(2-pyridin-3-ylethyl)-2-(trifluoromethoxy)benzenesulfonamide]
27 | 1800 |  | 2.4 |  |  |  |  | O=S(=O)(NCCc1nn[nH]n1)c1cc(S(=O)(=O)c2ccccc2)ccc1C(F)(F)F [Example 863, 5-(phenylsulfonyl)-N-[2-(2H-tetrazol-5-yl)ethyl]-2-(trifluoromethyl)benzenesulfonamide]
